Like-named read-outs stand apart in the source and are kept apart here.
Experiments:
Type in all cases: cell-based
[1] = system: TNF-α; experiment: Inhibition of TNF-α production by stimulated human peripheral blood leukocytes in vitro; conditions: PBL; for inhibition at 10 µM / inhibition at 50 µM: Homo sapiens, Leukocyte, read-out: Percentage of inhibition of TNF-α production
Procedure: (§1) Test substances used in in vitro experiments were dissolved in dimethyl sulfoxide (DMSO) (Kemika, Croatia) at concentrations of 50 mM and 10 mM, and were further diluted to final concentrations of 50 μM and 10 μM in 1 mL Dulbecco's modified Eagle medium (DMEM) supplemented with 1% heat inactivated fetal bovine serum (FBS), 1% L-glutamine, 50 U/ml penicillin, 50 μg/ml streptomycin and 2.5 μg/mL Fungizone (amphotericin B). Media and all media supplements were purchased from Gibco, Australia, except the FBS was purchased from Sigma, USA.
(§2) Peripheral blood leukocytes (PBL) were obtained from venous blood of healthy volunteers by sedimentation on 2% dextran T-500 (Amersham Biosciences, USA) and subsequent centrifugations of leukocyte rich plasma.
(§3) Peripheral blood leukocytes (PBL), isolated as described above, were seeded in a 48-well plate at a concentration of 3 to 5×10^6 cell per well in culture medium consisting of RPMI 1640 medium (Institute of Immunology, Croatia) supplemented with 10% heat-inactivated fetal calf serum (FCS, Biowhittaker, USA), 100 U/ml penicillin (Gibco, Australia), 100 μg/ml streptomycin (Gibco, Australia) and 2 mM L-glutamine (Gibco, Australia), and preincubated with the test compounds for 2 h at 37° C., in an atmosphere of 5% CO2, and 90% humidity. Then, stimuli (Sigma, USA) were added to a final concentration of 2 μg/mL lipopolysaccharide (LPS), 1 μg/mL phorbol 12-myristate 13-acetate (PMA) or 120 μg/mL zymosan. Samples were incubated overnight under conditions described above. At the end of incubation, the supernatants were transferred to eppendorf tubes and centrifuged for 10 min at 1500×g. Concentrations of human TNF-α, IL-1β, IL-6 and IL-8 were determined in cell supernatants by sandwich ELISA, using capture and detection antibodies (R&D Systems, Minneapolis, Minn.) according to the manufacturer's recommendations.
(§4) Inhibition (as percentage) was calculated using the following formula: % inhibition=(1−concentration of cytokines in sample/concentration of cytokines in positive control)×100. The positive control refers to stimulated samples, not treated with substances.

[2] = system: IL-1α; experiment: Inhibition of IL-1 production by stimulated human peripheral blood leukocytes in vitro; conditions: PBL; for inhibition at 10 µM / inhibition at 50 µM: Homo sapiens, Leukocyte, read-out: Percentage of inhibition of IL-1α production
[3] = system: IL-6; experiment: Inhibition of IL-6 production by stimulated human peripheral blood leukocytes in vitro; conditions: PBL; for inhibition at 10 µM / inhibition at 50 µM: Homo sapiens, Leukocyte, read-out: Percentage of inhibition of IL-6 production
Procedure: as §1, §2, §3, §4

[4] = system: IL-8; experiment: Inhibition of IL-8 production by stimulated human peripheral blood leukocytes in vitro; conditions: PBL; for inhibition at 10 µM / inhibition at 50 µM: Homo sapiens, Leukocyte, read-out: Percentage of inhibition of IL-8 production
Procedure: as §1, §2, §3, §4

[5] = system: human peripheral blood mononuclear cells (PBMC); experiment: Human T-cell proliferation in vitro (3H-thymidine incorporation); conditions: for inhibition at 10 µM / inhibition at 50 µM: Homo sapiens, PBMC, read-out: Percentage of inhibition of proliferation of stimulated PBMC
Procedure: Influence of substances at two different concentrations (50 μM and 10 μM) on cell proliferation of human peripheral blood mononuclear cells (PBMC) was assessed.
Heparinized peripheral blood was obtained from healthy donors, and PBMC were isolated by Histopaque 1077 (Sigma, USA) density centrifugation at 400×g for 30 minutes. 5×10^4 cells/well were cultured for 3 days in the RPMI medium as described above, in the presence (positive control) or absence (negative control) of stimulators [PHA (2.5 μg/mL) (Sigma, USA), or both PMA (10 ng/mL) (Sigma, USA) and ionomycin (500 ng/mL) (Calbiochem, USA)], and in the presence of the test compounds, at 37° C. in an atmosphere of 5% CO2 and 90% humidity. The cells were pulsed with 1 μCi of ^3H-thymidine (Amersham, USA) per well during the last 18 h of the culture, and were harvested on the 96-well filter (Packard Bioscience, USA) using a multiple cell harvester (Packard, USA). The incorporation of ^3H-thymidine in activated cells were measured using TopCount NXT (Packard, USA).
Inhibition (as percentage) was calculated using the following formula: % inhibition=(1−(^3H)thymidine incorporation expressed in counts per minute (cpm) in sample/(^3H)thymidine incorporation expressed in cpm in positive control)×100
where positive control refers to stimulated samples, not treated with substances.

[6] = zymosan stimulated, compound 10 μM
[7] = zymosan stimulated, compound 50 μM
[8] = PMA + ionomycin stimulated, compound 10 μM
[9] = PMA + ionomycin stimulated, compound 50 μM

## CC[C@H]1OC(=O)[C@H](C)[C@@H](O)[C@H](C)[C@@H](O[C@@H]2O[C@H](C)C[C@H](N(C)C)[C@H]2O)[C@](C)(O)C[C@@H](C)CN(C(=O)Nc2cccc(C(F)(F)F)c2)[C@H](C)[C@@H](O)[C@]1(C)O [Compound 13]
[1]; LPS stimulated, compound 10 μM
  inhibition at 10 µM: 0%
[1]; LPS stimulated, compound 50 μM
  inhibition at 50 µM: 0%
[1]; PMA stimulated, compound 10 μM
  inhibition at 10 µM: 0%
[1]; PMA stimulated, compound 50 μM
  inhibition at 50 µM: 0%
[1]; [6]
  inhibition at 10 µM: 0%
[1]; [7]
  inhibition at 50 µM: 52%
[2]; LPS stimulated, compound 10 μM
  inhibition at 10 µM: 0%
[2]; LPS stimulated, compound 50 μM
  inhibition at 50 µM: 52%
[2]; PMA stimulated, compound 10 μM
  inhibition at 10 µM: 0%
[2]; PMA stimulated, compound 50 μM
  inhibition at 50 µM: 32%
[2]; [6]
  inhibition at 10 µM: 34%
[2]; [7]
  inhibition at 50 µM: 89%
[3]; LPS stimulated, compound 10 μM
  inhibition at 10 µM: 0%
[3]; LPS stimulated, compound 50 μM
  inhibition at 50 µM: 0%
[3]; PMA stimulated, compound 10 μM
  inhibition at 10 µM: 84%
[3]; PMA stimulated, compound 50 μM
  inhibition at 50 µM: 100%
[3]; [6]
  inhibition at 10 µM: 52%
[3]; [7]
  inhibition at 50 µM: 94%
[4]; LPS stimulated, compound 10 μM
  inhibition at 10 µM: 0%
[4]; LPS stimulated, compound 50 μM
  inhibition at 50 µM: 0%
[4]; PMA stimulated, compound 10 μM
  inhibition at 10 µM: 0%
[4]; PMA stimulated, compound 50 μM
  inhibition at 50 µM: 25%
[4]; [6]
  inhibition at 10 µM: 62%
[4]; [7]
  inhibition at 50 µM: 0%
[5]; PHA stimulated, compound 10 μM
  inhibition at 10 µM: 11%
[5]; PHA stimulated, compound 50 μM
  inhibition at 50 µM: 42%
[5]; [8]
  inhibition at 10 µM: 21%
[5]; [9]
  inhibition at 50 µM: 43%

## CC[C@H]1OC(=O)[C@H](C)[C@@H](O)[C@H](C)[C@@H](O[C@@H]2O[C@H](C)C[C@H](N(C)C)[C@H]2O)[C@](C)(O)C[C@@H](C)CN(C(=O)NCc2ccccc2)[C@H](C)[C@@H](O)[C@]1(C)O [Compound 8]
[1]; LPS stimulated, compound 10 μM
  Percentage of inhibition of TNF-α production: 58%
[1]; LPS stimulated, compound 50 μM
  Percentage of inhibition of TNF-α production: 30%
[1]; PMA stimulated, compound 10 μM
  Percentage of inhibition of TNF-α production: 56%
[1]; PMA stimulated, compound 50 μM
  Percentage of inhibition of TNF-α production: 54%
[1]; [6]
  Percentage of inhibition of TNF-α production: 16%
[1]; [7]
  Percentage of inhibition of TNF-α production: 0%
[2]; LPS stimulated, compound 10 μM
  Percentage of inhibition of IL-1α production: 42%
[2]; LPS stimulated, compound 50 μM
  Percentage of inhibition of IL-1α production: 40%
[2]; PMA stimulated, compound 10 μM
  Percentage of inhibition of IL-1α production: 26%
[2]; PMA stimulated, compound 50 μM
  Percentage of inhibition of IL-1α production: 0%
[2]; [6]
  Percentage of inhibition of IL-1α production: 16%
[2]; [7]
  Percentage of inhibition of IL-1α production: 17%
[3]; LPS stimulated, compound 10 μM
  Percentage of inhibition of IL-6 production: 60%
[3]; LPS stimulated, compound 50 μM
  Percentage of inhibition of IL-6 production: 82%
[3]; [6]
  Percentage of inhibition of IL-6 production: 20%
[3]; [7]
  Percentage of inhibition of IL-6 production: 18%
[4]; LPS stimulated, compound 10 μM
  Percentage of inhibition of IL-8 production: 48%
[4]; LPS stimulated, compound 50 μM
  Percentage of inhibition of IL-8 production: 0%
[4]; PMA stimulated, compound 10 μM
  Percentage of inhibition of IL-8 production: 37%
[4]; PMA stimulated, compound 50 μM
  Percentage of inhibition of IL-8 production: 0%
[4]; [6]
  Percentage of inhibition of IL-8 production: 0%
[4]; [7]
  Percentage of inhibition of IL-8 production: 0%
[5]; PHA stimulated, compound 10 μM
  Percentage of inhibition of proliferation of stimulated PBMC: 0%
[5]; PHA stimulated, compound 50 μM
  Percentage of inhibition of proliferation of stimulated PBMC: 0%
[5]; [8]
  Percentage of inhibition of proliferation of stimulated PBMC: 0%
[5]; [9]
  Percentage of inhibition of proliferation of stimulated PBMC: 0%

## CC[C@H]1OC(=O)[C@H](C)[C@@H](O[C@H]2C[C@@](C)(OC)[C@@H](O)[C@H](C)O2)[C@H](C)[C@@H](O[C@@H]2O[C@H](C)C[C@H](N(C)C)[C@H]2O)[C@](C)(O)C[C@@H](C)CN(C(=S)Nc2cccc(Br)c2)[C@H](C)[C@@H](O)[C@]1(C)O [Compound 6]
[1]; LPS stimulated, compound 10 μM
  inhibition at 10 µM: 74%
[1]; LPS stimulated, compound 50 μM
  inhibition at 50 µM: 100%
[1]; PMA stimulated, compound 10 μM
  inhibition at 10 µM: 73%
[1]; PMA stimulated, compound 50 μM
  inhibition at 50 µM: 100%
[1]; [6]
  inhibition at 10 µM: 36%
[1]; [7]
  inhibition at 50 µM: 98%
[2]; LPS stimulated, compound 10 μM
  inhibition at 10 µM: 64%
[2]; LPS stimulated, compound 50 μM
  inhibition at 50 µM: 98%
[2]; PMA stimulated, compound 10 μM
  inhibition at 10 µM: 79%
[2]; PMA stimulated, compound 50 μM
  inhibition at 50 µM: 100%
[2]; [6]
  inhibition at 10 µM: 67%
[2]; [7]
  inhibition at 50 µM: 89%
[3]; LPS stimulated, compound 10 μM
  inhibition at 10 µM: 59%
[3]; LPS stimulated, compound 50 μM
  inhibition at 50 µM: 100%
[3]; [6]
  inhibition at 10 µM: 6%
[3]; [7]
  inhibition at 50 µM: 100%
[4]; LPS stimulated, compound 10 μM
  inhibition at 10 µM: 43%
[4]; LPS stimulated, compound 50 μM
  inhibition at 50 µM: 100%
[4]; PMA stimulated, compound 10 μM
  inhibition at 10 µM: 23%
[4]; PMA stimulated, compound 50 μM
  inhibition at 50 µM: 100%
[4]; [6]
  inhibition at 10 µM: 41%
[4]; [7]
  inhibition at 50 µM: 71%
[5]; PHA stimulated, compound 10 μM
  inhibition at 10 µM: 0%
[5]; PHA stimulated, compound 50 μM
  inhibition at 50 µM: 100%
[5]; [8]
  inhibition at 10 µM: 0%
[5]; [9]
  inhibition at 50 µM: 100%

From patent US20080200403A1, “9A-Carbamoyl and Thiocarbamoyl Azalides with Anti-Inflammatory Activity” (GLAXOSMITHKLINE, priority 2005, published 2008)
